US6861524B2, “Acyl and sulfonyl derivatives of 6,9-disubstituted 2-(trans-1,4-diaminocyclohexyl)-purines and their use as antiproliferative agents” (Aventis Pharmaceuticals Inc., priority 2000, dated 2005)
Where a name gives a salt, the structure may show the parent alone. Read-outs that look alike come from different tables or passages of the source.

Experiments:
[1] = tested on: HL-60 human leukemia; test: HL-60 human leukemia xenograft in nude mice; type: in vivo; conditions: Table 5; 1 mg/kg ip q1d 5x/wk; control 8341 ± 5355
Procedure: Antitumor efficacy is assessed using two subcutaneous human tumor xenograft models. The studies are performed using conventional assay techniques. Briefly, HL-60 (leukemia, 5×10^5 cells) and PC-3 (prostate, 5×10^6 cells) tumor cells are injected subcutaneously into nude mice (Cr1-CD1-Br-nu, Charles River Laboratory, Wilmington, Mass.). Dosing with compounds began when tumors reached 50 to 100 mm^3. The dose route/schedule for the test compounds is ip/q1d (5×/wk). The test doses are set based on the maximum tolerated dose (MTD). […] The test doses for the efficacy studies are set at ⅓rd the MTD (low dose) and the MTD (high dose). The results are shown in Tables 4 and 5 (HL-60, leukemia) (PC-3, prostate cancer). The length of the treatment phase is dependent on the tumor growth rate for the two models. This treatment phase is typically about 3 weeks for the HL-60 model and about 5 weeks for the PC-3 model. […] Dosing with flavopiridol is for the same time frame as for the experimental compounds in both xenograft models. Tumor volume (twice weekly) and body weights (once weekly) are monitored throughout the course of the treatment phase of the experiment. Tumor sizes are measured by external caliper measurements of protruding tumor. Volumes are calculated using the following formula: volume=½ (a×b2), where b is the smaller of two perpendicular diameters.

[2] = Red blood cell binding (RBC to plasma ratio), human whole blood; type: in vitro ADME; conditions: 30 minutes at 37° C., nominal 500 ng/ml
Procedure: (§1) Compounds, including one positive control, are assessed for red blood cell (RBC) uptake, using a modified procedure based on the protocol reported in Sun, J. X. S., et al. High-performance liquid chromatographic analysis, plasma protein binding and red blood cell partitioning of phenprobamate. Biopharmaceutics and Drug Disposition, 8 (1987) 341-351.
(§2) Briefly, RBC uptake is evaluated by comparison of the levels in spiked plasma (n=3) and plasma isolated from spiked whole blood (n=3). Compounds are incubated with human and mouse whole blood, respectively, for 30 minutes at 37° C. using a nominal concentration of 500 ng/ml. Following centrifugation, the plasma is removed and submitted for analysis. Each compound is also spiked into blank plasma at a nominal concentration of 500 ng/ml, and submitted for analysis. Levels in the two plasma samples (Cp′ and Cp in the equation below) and the blood hematocrit are used to determine the red blood cell to plasma ratio (Crbc/Cp). [formula] In equation 1, Cp′ is the level of drug in the spiked “blank” plasma, Cp is the level of drug in the plasma of spiked whole blood, and H is the hematocrit. The hematocrit values are determined as 0.4 for human whole blood and 0.41 for mouse whole blood. The samples are analyzed with ESI LC/MS, using positive ion detection with an internal standard.
(§3) The red blood cell to plasma ratio is determined for each compound using equation 1. Tables 6 and 7 summarize the respective mean Crbc/Cp values and standard deviations for mouse and human whole blood, respectively, in descending order based on the red blood cell to plasma ratio, where “*” denotes Positive Control, and “ND” denotes Not Determined. MDL 108552 is included as a positive control for red blood cell uptake.

[3] = Plasma pharmacokinetics in mice after single intravenous cassette doses; conditions: for Mean Conc. in plasma: mice
Procedure: Male mice are given single intravenous cassette doses of CDK inhibitor compounds.
A single intravenous cassette dose (18 or 15 mg/kg free base) is administered. For each compound, this is equivalent to a dose of approx. 3 mg/kg free base. […] The dose is administered at a volume of 10 ml/kg (total volume of approximately 0.25 ml/animal).
Male mice (Hsd:ICR (CD-1® SD®), Harlan), each weighing approximately 20-30 g at the start of the study. […] Water is available ad libitum throughout the study.
A single cassette dose of 5-6 compounds is administered by bolus injection into the tail vein over a 10-15-second period. […] Whole blood (approximately 0.6 ml/sample) is obtained by cardiac puncture and transferred to 3 ml glass tubes containing 45 U sodium heparin.
Sample Processing: Plasma: Whole blood is centrifuged at approximately 3,200 rpm for 10 min at approximately 5° C. and the plasma (approx. 0.3 ml/sample) is transferred to chilled plastic vials and stored at approx. −70° C. until bioanalysis.
Sample Analysis: Concentrations of each test article in plasma are quantitated by a non-validated method based on LC/MS using the following protocol.
Samples are removed from the freezer, allowed to thaw at room temperature, and vortexed to insure complete homogenization prior to sample manipulation. Samples are then prepared according to the following scheme: • 1. transfer 48 μL of plasma (blank mouse sample) into a 12×75 mm test tube. • 2. add 12 μL of working standard to the blank plasma for standard curve preparation. • 3. […] Inject 25 μL on LC/MS. Chromatographic Conditions:
Data Analysis: Concentrations of Compounds in plasma of individual animals are determined by bioanalytics. […] Statistical analyses are limited to simple expressions of variation (mean and standard deviation). The plasma AUC (area-under-curve) is determined by the linear trapezoidal rule. […] All PK parameters are determined by noncompartmental methods using WinNonlin version 3.0 (Pharsight Corp).
The following information is based on a graph of the semi-log of the plasma concentration in ng/ml versus collection time in hours. • “Cmax” represents the maximum plasma concentration. • “t1/2” represents the half-life of the compound. • “AUC0-∞” represents the calculated area under the curve. • “AUC % Extrap(obs.)” represents the extrapolated area under the curve. • “Cls” is the clearance rate.

[4] = molecular target: cdk4/cyclin D1 (Homo sapiens, UniProt P11802); test: Cyclin-dependent kinase assay, cdk4/cyclin D1 (GST-pRb substrate); type: biochemical; conditions: inhibition of cyclin D1/CDK 4 enzyme activity
Sequence of cdk4/cyclin D1 (P11802 whole entry): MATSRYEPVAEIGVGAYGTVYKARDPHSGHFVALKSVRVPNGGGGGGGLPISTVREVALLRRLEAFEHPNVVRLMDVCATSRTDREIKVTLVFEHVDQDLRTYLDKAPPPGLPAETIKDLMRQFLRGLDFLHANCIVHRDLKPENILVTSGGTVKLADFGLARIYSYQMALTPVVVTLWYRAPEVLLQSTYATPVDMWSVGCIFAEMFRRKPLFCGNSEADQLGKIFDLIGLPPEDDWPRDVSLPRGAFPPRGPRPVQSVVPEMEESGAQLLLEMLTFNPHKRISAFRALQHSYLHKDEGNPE
Sequence of cdk4/cyclin D1 (P24385 whole entry partner): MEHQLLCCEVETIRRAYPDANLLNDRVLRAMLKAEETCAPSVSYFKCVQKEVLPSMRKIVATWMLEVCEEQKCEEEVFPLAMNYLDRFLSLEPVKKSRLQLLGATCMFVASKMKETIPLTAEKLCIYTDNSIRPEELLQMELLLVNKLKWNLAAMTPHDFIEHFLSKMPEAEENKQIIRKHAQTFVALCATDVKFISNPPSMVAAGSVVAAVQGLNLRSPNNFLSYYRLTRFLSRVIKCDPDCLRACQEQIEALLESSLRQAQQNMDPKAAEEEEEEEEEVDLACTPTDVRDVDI

[5] = tested on: MDA-MB-435; test: In vitro proliferation assay (MTT), MDA-MB-435; type: cell-based, human; conditions: mean (SD, n) where given, read-out: MB-435 Breast (IC50 μM)
Procedure: (§4) The proliferation of tumor cells can be measured using a tetrazolium salt-based assay known as the MTT (3-[4,5-Dimethylthiazol-2-yl]-2,5-diphenyltetrazolium bromide) assay. […] For the assay, the cell lines are plated onto 96 well plates at 1000 to 2500 cells/well (depending on the properties of the individual cell lines), left to attach and recover overnight. […] After 3 days, the cells are incubated with MTT dye (3-[4,5-Dimethylthiazol-2-yl]-2,5-diphenyltetrazolium bromide, Sigma #M5655, 10 mg/ml in Hank's Buffered Saline) to estimate the amount of live cells remaining vs. concentration for the test compounds. […] The MTT and culture medium is then removed from the cultures and 200 μl of DMSO is added to solubilize the dye from the cell layer. The absorbance at 570 nm is determined for each culture using a Spectramax plate reader (Molecular Devices).
(§5) IC50s were determined from the raw data from either the MTT or SRB assays.
(§6) All of the cell lines were obtained from American Type Tissue Collection, with the ATCC accession number in parentheticals. MCF-7 and MDA-MB-231 cells were grown in improved minimum essential medium (Biofluids) without phenol red, supplemented with 5% fetal bovine serum, 0.01 mg/ml gentamicin and 3 mM L-glutamine.

[6] = tested on: PC-3; test: In vitro proliferation assay (MTT), PC-3; type: cell-based, human
Procedure: as §4, §5, §6

[7] = molecular target: cdk2/cyclin E (Homo sapiens, UniProt P24941); test: Cyclin-dependent kinase assay, cdk2/cyclin E (GST-pRb substrate); conditions: read-out: CDK2 IC50; inhibition of cyclin E/CDK 2 enzyme activity
Procedure: (§7) The IC50 values for cdk1/cyclin B, cdk2/cyclin E, and cdk4/cyclin D1 inhibition are determined using the following methods:
The cdk2 sequence (accession number X62071) is amplified by PCR and cloned into the SpeI and XhoI sites of pFASTBAC1 (Life Technologies). […] This primer would anneal in the 3′ untranslated sequence.
The cyclin E sequence (accession number M73812) is amplified by PCR and cloned into the XbaI and XhoI sites of pFASTBAC1 (Life Technologies).
(§8) The cDNA for each of the cyclin-dependent kinases (CDK) and the corresponding cyclins are cloned into the baculovirus expression vector, pFASTBAC1 (Life Technologies). The sequences of each of the constructs are confirmed by automated fluorescent DNA sequencing according to the manufacture's protocol (Perkin Elmer/Applied Biosystems Inc).
(§9) The insect cell (Sf9) expression is optimized for each of the CDK/cyclin pairs according to the manufacturer's protocols (Life Technologies).
(§10) The viruses are added to the cells and the culture is incubated at 27° C. for the desired time. The cells are harvested by centrifugation at 3000 rpm for 10 minutes. The cells are snap frozen on dry ice and stored at −80° C.
(§11) Cell extracts are made following a standard procedure. The cell pellet is resuspended in lysis buffer (50 mM HEPES, pH 8.0, 10 mM MgCl2, 1 mM DTT, 2.5 mM EGTA, 1 mM EDTA, 10 mM β-glycerophosphate, 1 mM sodium vanadate, 1 mM sodium fluoride, 1×Protease inhibitor cocktail). The cells are lysed using the microfluidizer (Microfluidics) for 20 minutes. Cell debris is removed by centrifugation at 100,000×g. The cell extracts are aliquoted in 1 ml aliquots, frozen on dry ice, and stored at −80° C.
The kinase reactions are performed following a standard procedure. […]
The transformed bacteria are grown overnight to saturation, then diluted in YT broth and incubated at 37° C. for 2 h. […] The beads are washed with kinase buffer and then quantitated of Coomassie blue-stained proteins separated by SDS-PAGE using a protein standard of known concentration.

[8] = molecular target: cdk1/cyclin B (Homo sapiens, UniProt P06493); test: Cyclin-dependent kinase assay, cdk1/cyclin B (Histone H1 substrate)
Sequence of cdk1/cyclin B (P06493 whole entry): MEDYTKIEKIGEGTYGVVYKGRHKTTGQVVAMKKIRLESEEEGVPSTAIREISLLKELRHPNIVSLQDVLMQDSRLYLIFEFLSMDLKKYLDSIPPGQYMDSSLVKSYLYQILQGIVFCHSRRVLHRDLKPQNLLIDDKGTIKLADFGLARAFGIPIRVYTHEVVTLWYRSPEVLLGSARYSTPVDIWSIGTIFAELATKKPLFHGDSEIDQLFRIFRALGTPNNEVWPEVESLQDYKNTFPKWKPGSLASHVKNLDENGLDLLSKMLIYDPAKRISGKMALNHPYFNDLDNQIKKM
Sequence of cdk1/cyclin B (P14635 whole entry partner): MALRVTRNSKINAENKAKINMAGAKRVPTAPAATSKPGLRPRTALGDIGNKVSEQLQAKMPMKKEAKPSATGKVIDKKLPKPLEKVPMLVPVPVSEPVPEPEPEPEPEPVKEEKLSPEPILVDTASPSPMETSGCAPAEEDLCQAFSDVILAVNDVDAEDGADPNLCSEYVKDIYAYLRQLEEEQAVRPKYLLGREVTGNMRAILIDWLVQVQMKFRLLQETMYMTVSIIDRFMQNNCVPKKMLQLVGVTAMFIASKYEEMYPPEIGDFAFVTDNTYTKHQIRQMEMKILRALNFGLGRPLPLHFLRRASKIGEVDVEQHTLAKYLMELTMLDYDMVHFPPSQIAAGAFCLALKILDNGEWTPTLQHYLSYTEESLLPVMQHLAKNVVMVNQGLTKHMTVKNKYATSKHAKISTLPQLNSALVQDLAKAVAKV
Procedure: as §7
The cdk1 sequence (accession number Y00272) is amplified by PCR and cloned into the BamHI and SalI sites of pFASTBAC1 (Life Technologies).
The cyclin B1 sequence (accession number M25753) is amplified by PCR and cloned into the BamHI and SalI sites of pFASTBAC1 (Life Technologies).
as §8, §9, §10, §11
The kinase reactions are performed following a standard procedure. The enzyme and inhibitor are diluted in kinase buffer (50 mM HEPES, pH 8.0, 10 mM MgCl2, 2.5 mM EGTA, 10 mM β-glycerophosphate, 1 mM sodium vanadate, 1 mM sodium fluoride, and 1 mM DTT) and pre-incubated for 30 minutes. […] The cdk1 enzyme activity is assayed using Histone H1 (Sigma) in the presence of 10 μM ATP for 30 min at room temperature. The reactions are terminated by the addition of 50 μL of 10 mM cold ATP to stop the reactions. The reactions are transferred to a pre-soaked 96-well multi-screen plate containing 30 μL of 100% TCA per well. After incubation for one hour at room temperature, the plates are washed twice with 200 μl of 20% TCA, followed by 200 μl of 10% TCA and finally with 200 μl of 5% TCA. After drying the plates at room temperature, the filter plates are placed in adapter plates (Packard) and 40 μl of Microscint-O® (Packard) is added to each well. Top Seal A film is used to cover the plates before counting in a Top Count Scintillation Counter.
The % remained activity of the indicated Cdk/cyclin kinase complex in the presence of inhibitor is calculated by the ratio of cpm in the presence of inhibitor to cpm in the absence of inhibitor (% Activity=vi/vo×100%).

[9] = tested on: PC12 cells, or rat sympathetic neurons; conditions: Park et al. 1997, cited from earlier work; for concentration giving maximal protection from death: camptothecin-treated PC12 cells or rat sympathetic neurons; for cell death at day 6: camptothecin-treated neuronal cells
[10] = tested on: SMC; conditions: in vitro and in vivo; Ruef et al. 1999; cited from earlier work
[11] = tested on: herpes simplex virus; conditions: Schang et al. 1998; cited from earlier work
[12] = tested on: cortical neurons; conditions: Park et al. 1997; cited from earlier work
[13] = Red blood cell binding (RBC to plasma ratio), mouse whole blood; type: in vitro ADME; conditions: 30 minutes at 37° C., nominal 500 ng/ml, hematocrit 0.41
Procedure: as §1, §2, §3

## Cc1ccc(OC(=O)N2CCC(Nc3nc(N[C@H]4CC[C@H](N)CC4)nc4c3ncn4C3CCCC3)CC2)cc1.Cl.Cl [Compound 82, trans-4-[2-(4-Amino-cyclohexylamino)-9-cyclopentyl-9H-purin-6-ylamino]-piperidine-1-carboxylic acid p-tolyl ester dihydrochloride]
[1]
  HL60 Mean Vol. ± SD: 5164 ± 5516
[2]
  Mean Red Blood Cell to Plasma Ratio: 5.8
[3]; Cassette #4, single 15 mg/kg iv cassette dose (3 mg/kg/compound), 0.083 h
  Mean Conc. in plasma: 1458.0 ± 77.4 ng/mL
[3]; Cassette #4, single 15 mg/kg iv cassette dose (3 mg/kg/compound), 0.25 h
  Mean Conc. in plasma: 875.3 ± 96.7 ng/mL
[3]; Cassette #4, single 15 mg/kg iv cassette dose (3 mg/kg/compound), 0.5 h
  Mean Conc. in plasma: 369.6 ± 40.0 ng/mL
[3]; Cassette #4, single 15 mg/kg iv cassette dose (3 mg/kg/compound), 1 h
  Mean Conc. in plasma: 133.7 ± 16.3 ng/mL
[3]; Cassette #4, single 15 mg/kg iv cassette dose (3 mg/kg/compound), 3 h
  Mean Conc. in plasma: 37.5 ± 10.7 ng/mL
[3]; Cassette #4, single 15 mg/kg iv cassette dose (3 mg/kg/compound), 6 h
  Mean Conc. in plasma: 14.5 ± 3.4 ng/mL
[3]; Cassette #4, single 15 mg/kg iv cassette dose (3 mg/kg/compound), 8 h
  Mean Conc. in plasma: 12.3 ± 2.2 ng/mL
[3]; Cassette #4, single 15 mg/kg iv cassette dose (3 mg/kg/compound), 24 h
  Mean Conc. in plasma: BLQ
[3]; mouse plasma, iv Cassette #4, 3 mg/kg/compound (15 mg/kg total dose)
  Cls: 53.0 mL/min/kg

## trans-3-{4-[2-(4-Amino-cyclohexylamino)-9-cyclopentyl-9H-purin-6-ylamino]-piperidine-1-sulfonyl}-benzoic acid methyl ester dihydrochloride [Compound 135]
[4]
  IC50: 62 nM
[5]
  IC50: 3.38 µM
[6]; MTT assay, mean (SD, n) where given, read-out: PC-3 Prostate (IC50 μM)
  IC50: 4.05 µM
[7]
  IC50: 4 nM
[8]; read-out: CDK1 IC50, inhibition of cyclin B/CDK 1 enzyme activity
  IC50: 80 nM

## CN1CC[C@H](c2c(O)cc(O)c3c(=O)cc(-c4ccccc4Cl)oc23)[C@H](O)C1 [Flavopiridol]
[9]
  concentration giving maximal protection from death: 1 µM
  cell death at day 6: approximately 30%
[10]
  SMC growth: inhibit SMC growth in vitro and in vivo

## Cn1cnc2c(NCc3ccccc3)nc(NCCO)nc21 [Olomoucine, 6-(benzylamino)-2-[(2-hydroxyethyl)amino]-9-methylpurine]
[9]
  concentration giving maximal protection from death: 200 µM
  cell death at day 6: approximately 30%
[11]
  replication of herpes simplex virus: inhibited the replication

## Cn1cnc2nc(NCCO)nc(NCc3ccccc3)c21 [iso-olomoucine]
[9]; PC12 cells / sympathetic neurons
  prevention of cell death of camptothecin-treated neuronal cells: failed to prevent the cell death
[12]
  prevention of cell death of camptothecin-treated neuronal cells: failed to prevent the cell death

## CCCCc1ccc(C(=O)N2CCC(Nc3nc(N[C@H]4CC[C@H](N)CC4)nc4c3ncn4C3CCCC3)CC2)cc1 [Compound 21, trans-1-{4-[2-(4-Amino-cyclohexylamino)-9-cyclopentyl-9H-purin-6-ylamino]-piperidin-1-yl}-1-(4-butyl-phenyl)-methanone]
[4]
  IC50: 476 nM
[8]
  IC50: 89 nM

## N[C@H]1CC[C@H](Nc2nc(NC3CCN(C(=O)/C=C/c4ccccc4)CC3)c3ncn(C4CCCC4)c3n2)CC1 [Compound 62, trans-(E)-1-{4-[2-(4-Amino-cyclohexylamino)-9-cyclopentyl-9H-purin-6-ylamino]-piperidin-1-yl}-3-phenyl-propenone dihydrochloride]
[4]
  IC50: 167 nM
[8]
  IC50: 25 nM

## Cl.Cl.N[C@H]1CC[C@H](Nc2nc(NC3CCN(C(=O)Oc4ccc(F)cc4)CC3)c3ncn(C4CCCC4)c3n2)CC1 [Compound 87, trans-4-[2-(4-Amino-cyclohexylamino)-9-cyclopentyl-9H-purin-6-ylamino]-piperidine-1-carboxylic acid 4-fluoro-phenyl ester dihydrochloride]
[6]; Homo sapiens, PC-3, read-out: PC-3 Prostate (IC50 μM)
  IC50: 0.16 µM
[13]
  Mean Red Blood Cell to Plasma Ratio: 3.4
[2]
  Mean Red Blood Cell to Plasma Ratio: 8.4
[3]; Cassette #3, single 15 mg/kg iv cassette dose (3 mg/kg/compound), 0.083 h
  Mean Conc. in plasma: 1171.4 ± 153.4 ng/mL
[3]; Cassette #3, single 15 mg/kg iv cassette dose (3 mg/kg/compound), 0.25 h
  Mean Conc. in plasma: 371.9 ± 35.9 ng/mL
[3]; Cassette #3, single 15 mg/kg iv cassette dose (3 mg/kg/compound), 0.5 h
  Mean Conc. in plasma: 141.4 ± 9.5 ng/mL
[3]; Cassette #3, single 15 mg/kg iv cassette dose (3 mg/kg/compound), 1 h
  Mean Conc. in plasma: 65.0 ± 14.0 ng/mL
[3]; Cassette #3, single 15 mg/kg iv cassette dose (3 mg/kg/compound), 3 h
  Mean Conc. in plasma: 19.2 ± 6.0 ng/mL
[3]; Cassette #3, single 15 mg/kg iv cassette dose (3 mg/kg/compound), 6 h
  Mean Conc. in plasma: 4.3 ± 0.7 ng/mL
[3]; Cassette #3, single 15 mg/kg iv cassette dose (3 mg/kg/compound), 8 h
  Mean Conc. in plasma: 3.2 ± 1.6 ng/mL
[3]; Cassette #3, single 15 mg/kg iv cassette dose (3 mg/kg/compound), 24 h
  Mean Conc. in plasma: BLQ^a
